Assay results: US8394797B2, “Substituted pyrazole sigma receptor antagonists” (Laboratorios Del Dr. Esteve, S.A., priority 2004, dated 2013)
Structures can show the parent of a compound that is named as a salt. Where two headings read alike, the source gives them in different places.

Columns and labels:
σ1-receptor = biological target: T1, σ1-receptor (Cavia porcellus, UniProt Q60492); assay: Sigma-1 receptor binding, [3H](+)-pentazocine, brain membranes; parameters: species or system guinea pig; details: for inhibition at 1 µM: 2.5 h, read-out: binding sigma-1 (*) % of radioactively labeled compound replaced by the tested compound
T1 construct: guinea pig brains were homogenized; from tissue; host or cells: guinea pig brain membranes
T1 sequence (Q60492 whole entry): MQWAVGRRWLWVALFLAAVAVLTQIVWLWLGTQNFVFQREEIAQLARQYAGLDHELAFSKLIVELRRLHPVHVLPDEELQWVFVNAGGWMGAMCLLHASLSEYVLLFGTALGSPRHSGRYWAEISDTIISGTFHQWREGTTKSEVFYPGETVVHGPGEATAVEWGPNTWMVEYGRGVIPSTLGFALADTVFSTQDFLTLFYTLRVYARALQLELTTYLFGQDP

σ2-receptor = biological target: T2, σ2-receptor (Mus musculus, UniProt Q8VD00); assay: Sigma-2 receptor binding, [3H]-DTG, brains from sigma-1 knockout mice; details: for inhibition at 1 µM: 2 h, tested compound at 10^-6 M, [3H]-DTG 3 nM, read-out: binding sigma-2 (*) % of radioactively labeled compound replaced by the tested compound; for Ki: [3H]-DTG, sigma-1 knockout mouse brain
T2 construct: brains from sigma receptor type I (sigma-1) knockout mice were homogenized; from tissue; host or cells: brain membranes of sigma-1 knockout mice
T2 sequence (Q8VD00 1-176): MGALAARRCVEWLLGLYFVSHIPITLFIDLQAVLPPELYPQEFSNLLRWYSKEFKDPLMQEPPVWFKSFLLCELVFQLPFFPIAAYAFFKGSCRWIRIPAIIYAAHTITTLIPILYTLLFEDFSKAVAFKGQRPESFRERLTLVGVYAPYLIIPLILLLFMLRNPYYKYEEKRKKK
Procedure: In brief, brains from sigma receptor type I (sigma-1) knockout mice were homogenized in a volume of 10 mL/g tissue net weight of ice-cold 10 mM Tris-HCl, pH 7.4, containing 320 mM sucrose (Tris-sucrose buffer) with a Potter-Elvehjem homogenizer (10 strokes at 500 r.p.m.) The homogenates were then centrifuged at 1000 g for 10 min at 4° C., and the supernatants were saved. The pellets were resuspended by vortexing in 2 mL/g ice-cold Tris-sucrose buffer and centrifuged again at 1000 g for 10 min. The combined 1000 g supernatants were centrifuged at 31000 g for 15 min at 4° C. The pellets were resuspended by vortexing in 3 mL/g 10 mM Tris-HCl, pH 7.4, and the suspension was kept at 25° C. for 15 min.
The assay tubes contained 10 μL of [^3H]-DTG (final concentration of 3 nM), 400 μL of the tissue suspension (5.3 mL/g in 50 mM Tris-HCl, pH 8.0) to a final assay volume of 0.5 mL. Non-specific binding was defined by addition of a final concentration of 1 μM haloperidol. […] Filters were washed with three times with 5 mL volumes of cold Tris-HCl buffer (10 mM, pH 8.0). Following addition of scintillation cocktail samples were allowed to equilibrate overnight.

[1] = tested on: capsaicin-induced mechanical allodynia in mice; assay: Effect on capsaicin in development of mechanical allodynia (von Frey filaments); assay type: in vivo; details: for antiallodynic effect: mice, capsaicin, von Frey filaments
Procedure: Effect on Capsaicin in Development of Mechanical Allodynia This model uses the von-Frey Filaments and is a model to test the effects or symptoms of neuropathic pain, allodynia etc. […]. After habituation mice were according to FIG. 1 first treated with the test-compound (or solvent in controls). Then […] (1% DMSO) is injected into their paw resulting in developing pain in the effected paw. The effected paw is then treated with a mechanical stimulus and the latency time before the paw is withdrawn is measured.

[2] = tested on: carrageenan-induced thermal hyperalgesia in mice; assay: Carrageenan-induced thermal hyperalgesia model (plantar test, Hargreaves); assay type: in vivo
Procedure: Some compounds were also evaluated for antinociceptive activity in the carrageenan-induced thermal hyperalgesia model in mice. In this model, two hours after carrageenan injection into the paw, the plantar test was used to assess thermal hyperalgesia according to the method described by Hargreaves et al. (1988). The compounds of Examples 58 and 62.

[3] = tested compound at 10^-6 M, [3H](+)-pentazocine 0.5 nM
[4] = [3H](+)-pentazocine, guinea pig brain membranes, read-out: binding sigma-1 Ki

Compound	melting point	inhibition at 1 µM (σ1-receptor; [3])	Ki (σ1-receptor; [4])	inhibition at 1 µM (σ2-receptor)	Ki (σ1-receptor)	inhibition at 1 µM (σ1-receptor)	Ki (σ2-receptor)	antiallodynic effect [1]	analgesia ([2]; 2.5 mg/kg)	analgesia ([2]; 10 mg/kg)	activity in the carrageenan thermal hyperalgesia model ([2]; mice, two hours after carrageenan)	analgesia ([1]; 2 mg/kg)
c1ccc(CN2CCN(CCC3CCCc4c3cnn4-c3ccccc3)CC2)cc1 (stereo not shown) [Example 10, 4-(2-(4-benzylpiperazin-1-yl)ethyl)-4,5,6,7-tetrahydro-1-phenyl-1H-indazole]	98 to 101 °C	100%	6.1 nM	70.2%	–	–	–	–	–	–	–	–
O=C(O)C(=O)O.c1ccc(-n2ncc3c2CCCC3CCN2CCC3(CC2)OCc2ccccc23)cc1 (stereo not shown) [Example 12, 4,5,6,7-tetrahydro-1-phenyl-4-(2-[spiro[isobenzofuran-1(3H), 4′-piperidin]-1′-yl]ethyl)-1H-indazole oxalate]	133 to 135 °C	–	–	98.8%	0.9 nM	100%	37 nM	–	–	–	–	–
c1ccc(-n2ncc3c2CCC3CCn2ccnc2)cc1 (stereo not shown) [Example 45, 4-(2-(1H-imidazol-1-yl)ethyl)-1,4,5,6-tetrahydro-1-phenylcyclopenta[c]pyrazole]	102.9 to 105.7 °C	76.4%	143 nM	22.8%	–	–	–	–	–	–	–	–
C[C@@H]1CN(CCC2CCCc3c2cnn3-c2ccc(F)cc2)C[C@H](C)O1.O=C(O)C(=O)O (stereo partly drawn) [Example 68, cis-1-(4-fluorophenyl)-4,5,6,7-tetrahydro-4-(2-(2,6-dimethylmorpholin-4-yl)ethyl)-1H-indazole oxalate]	164 to 169 °C	98%	14.9 nM	99.8%	–	–	35.2 nM	–	–	–	–	–
C(/CN1CCOCC1)=C1/CCCc2c1cnn2-c1ccccc1.O=C(O)C(=O)O [Example 77, (E)-4,5,6,7-tetrahydro-4-(2-(morpholin-4-yl)ethylidene)-1-phenyl-1H-indazole oxalate]	–	–	–	–	–	–	–	clear antiallodynic effect	–	–	–	–
C[C@@H]1CN(CCC2CCc3c2cnn3-c2ccccc2)C[C@H](C)O1.O=C(O)C(=O)O (stereo partly drawn) [Example 47, cis-1,4,5,6-tetrahydro-4-(2-(2,6-dimethylmorpholin-4-yl)ethyl)-1-phenylcyclopenta-[c]pyrazole oxalate]	160.2 to 161.5 °C	104%	1.8 nM	95.9%	–	–	–	–	–	–	–	–
C(/CN1CCCC(c2ccccc2)C1)=C1/CCCc2c1cnn2-c1ccccc1 (stereo not shown) [Example 23, (E)-4,5,6,7-tetrahydro-1-phenyl-4-(2-(3-phenylpiperidin-1-yl)ethylidene)-1H-indazole]	136 to 138 °C	99.4%	23.3 nM	67.4%	–	–	–	–	–	–	–	–
Cn1ncc2c1CCCC2CCN1Cc2ccccc2C1.O=C(O)C(=O)O (stereo not shown) [Example 60, 4,5,6,7-tetrahydro-4-(2-(isoindolin-2-yl)ethyl)-1-methyl-1H-indazole oxalate]	150 to 151 °C	104%	3.1 nM	88.2%	–	–	18.8 nM	–	–	–	–	–
O=C(O)C(=O)O.c1ccc(C2CCN(CCC3CCCc4c3cnn4-c3ccccc3)CC2)cc1 (stereo not shown) [Example 9, 4,5,6,7-tetrahydro-1-phenyl-4-(2-(4-phenylpiperidin-1-yl)ethyl)-1H-indazole oxalate]	124 to 125 °C	101%	1.5 nM	107%	–	–	37.5 nM	–	–	–	–	–
O=C(O)C(=O)O.c1ccc(-n2ncc3c2CCCC3CCN2CCCCC2)cc1 (stereo not shown) [Example 14, 4,5,6,7-tetrahydro-1-phenyl-4-(2-(piperidin-1-yl)ethyl)-1H-indazole oxalate]	185 to 188 °C	99.8%	2.3 nM	89%	–	–	–	–	–	–	–	–
C(/CN1CCC2(CC1)OCc1ccccc12)=C1/CCCc2c1cnn2-c1ccccc1.O=C(O)C(=O)O [Example 19, (E)-4,5,6,7-tetrahydro-1-phenyl-4-(2-[spiro[isobenzofuran-1(3H), 4′-piperidin]-1′-yl]ethylidene)-1H-indazole oxalate]	155 to 157 °C	–	–	91%	4.9 nM	100%	479 nM	–	–	–	–	–
O=C(O)C(=O)O.c1ccc(-n2ncc3c2CCC3CCN2CCC3(CC2)OCc2ccccc23)cc1 (stereo not shown) [Example 51, 1,4,5,6-tetrahydro-1-phenyl-4-(2-[spiro[isobenzofuran-1(3H), 4′-piperidin]-1′-yl]ethyl)cyclopenta[c]pyrazole oxalate]	170.5 to 173.6 °C	–	–	113%	31.3 nM	107%	–	–	–	–	–	–
C(/CN1CCOCC1)=C1/CCCc2c1cnn2-c1ccccc1 [Example 5, (E)-4,5,6,7-tetrahydro-4-(2-(morpholin-4-yl)ethylidene)-1-phenyl-1H-indazole]	114 to 116 °C	94%	37.2 nM	39%	–	–	–	–	–	–	–	–
Cn1ncc2c1CCCC2CCN1CCC(c2ccccc2)CC1.O=C(O)C(=O)O (stereo not shown) [Example 58, 4,5,6,7-tetrahydro-1-methyl-4-(2-(4-phenylpiperidin-1-yl)ethyl)-1H-indazole oxalate]	–	106%	1.1 nM	100%	–	–	6.3 nM	clear antiallodynic effect	60%	~90%	highly active	100%
C(/CN1CCCCCC1)=C1/CCCc2c1cnn2-c1ccccc1.O=C(O)C(=O)O [Example 16, (E)-4-(2-(azepan-1-yl)ethylidene)-4,5,6,7-tetrahydro-1-phenyl-1H-indazole oxalate]	171 to 173 °C	99.9%	1.5 nM	93%	–	–	–	–	–	–	–	–
O=C(O)C(=O)O.c1ccc(-n2ncc3c2CCCC3CCN2Cc3ccccc3C2)cc1 (stereo not shown) [Example 56, 4,5,6,7-tetrahydro-4-(2-(isoindolin-2-yl)ethyl)-1-phenyl-1H-indazole oxalate]	195.7 to 200 °C	106%	0.3 nM	109%	–	–	1.4 nM	–	–	–	–	–
c1ccc(C2CCN(CCC3CCc4c3cnn4-c3ccccc3)CC2)cc1 (stereo not shown) [Example 36, 1,4,5,6-tetrahydro-1-phenyl-4-(2-(4-phenylpiperidin-1-yl)ethyl)cyclopenta[c]pyrazole]	83 to 86 °C	103%	5.9 nM	87.9%	–	–	–	–	–	–	–	–
c1ccc(-n2ncc3c2CCCC3CCN2CCOCC2)cc1 (stereo not shown) [Example 2, 4,5,6,7-tetrahydro-4-(2-(morpholin-4-yl)ethyl)-1-phenyl-1H-indazole oxalate]	–	–	–	–	–	–	–	clear antiallodynic effect	–	–	–	–
Clc1ccc(-n2ncc3c2CCCC3CCN2CCOCC2)cc1Cl.O=C(O)C(=O)O (stereo not shown) [Example 7, 1-(3,4-dichlorophenyl)-4,5,6,7-tetrahydro-4-(2-(morpholin-4-yl)ethyl)-1H-indazole oxalate]	148 to 149.8 °C	100%	4.3 nM	98.1%	–	–	–	–	–	–	–	–
O=C(O)C(=O)O.c1ccc(-n2ncc3c2CCC3CCN2Cc3ccccc3C2)cc1 (stereo not shown) [Example 35, 2-(2-(1,4,5,6-tetrahydro-1-phenylcyclopenta[c]pyrazol-4-yl)ethyl)isoindoline oxalate]	195 to 197 °C	101%	9.3 nM	26.4%	–	–	–	–	–	–	–	–
